Assay results published in ChEMBL document CHEMBL3885861, “Open TG-GATES”.

Organism: Rattus norvegicus
Test: Open TG-GATES - Regimen: Daily Repeat
Type: toxicity, organism-based, Sprague-Dawley
Parameters: regimen Daily Repeat, gender Male, age 6 weeks
Conditions: in vivo, po, 30 mg/kg, route gavage, dose level Middle; for APTT / Bas / Eos / Fbg / Hb / Ht / Lym / MCH / MCHC / MCV / Mono / Neu / PT / Plat / RBC / Ret / WBC: tissue Blood; for KIDNEY_L / KIDNEY_R / KIDNEY_TOTAL: tissue Kidney; for LIVER: tissue Liver; for A/G / ALP / ALT / AST / BUN / CRE / Ca / Cl / DBIL / GLC / IP / K / LDH / Na / PL / RALB / TBIL / TC / TG / TP / gamma-GTP: tissue Plasma

## CC1=C(/C=C/C(C)=C/C=C/C(C)=C/CO)C(C)(C)CCC1 [RETINOL]
72 h, time 3 day
  TERMINAL_BW: 230.8 g
  APTT: 23.3 s
  Bas: 0%
  Eos: 0.8%
  Fbg: 299 mg/dL
  Hb: 13.5 g/dL
  Ht: 39%
  Lym: 79.4%
  MCH: 21.5 pg
  MCHC: 34.7%
  MCV: 62 fL
  Mono: 2.4%
  Neu: 16.6%
  PT: 16.8 s
  Plat: 120.5 x10_4/uL
  RBC: 629.4 x10_4/ul
  Ret: 5.6%
  WBC: 103.8 x10_2/uL
  KIDNEY_L: 1 g
  KIDNEY_R: 0.9 g
  KIDNEY_TOTAL: 1.9 g
  LIVER: 11.2 g
  A/G: 1.3
  ALP: 2028 IU/L
  ALT: 48.8 IU/L
  AST: 78.6 IU/L
  BUN: 19.4 mg/dL
  CRE: 0.2 mg/dL
  Ca: 11 mg/dL
  Cl: 106.8 meq/L
  DBIL: 0.002 mg/dL
  GLC: 188.6 mg/dL
  IP: 6.4 mg/dL
  K: 4.3 meq/L
  LDH: 235.6 IU/L
  Na: 141.2 meq/L
  PL: 166.4 mg/dL
  RALB: 3.2 g/dL
  TBIL: 0.012 mg/dL
  TC: 78.8 mg/dL
  TG: 150 mg/dL
  TP: 5.7 g/dL
  gamma-GTP: 1.6 IU/L
[…], time 7 day
  TERMINAL_BW: 256.2 g
  APTT: 26.4 s
  Bas: 0%
  Eos: 0.8%
  Fbg: 275.2 mg/dL
  Hb: 13.7 g/dL
  Ht: 39.4%
  Lym: 83.6%
  MCH: 20.8 pg
  MCHC: 34.8%
  MCV: 59.8 fL
  Mono: 1.6%
  Neu: 13.2%
  PT: 15.8 s
  Plat: 125.2 x10_4/uL
  RBC: 660.2 x10_4/ul
  Ret: 4.6%
  WBC: 81.8 x10_2/uL
  KIDNEY_L: 1.1 g
  KIDNEY_R: 1.1 g
  KIDNEY_TOTAL: 2.2 g
  LIVER: 11.7 g
  A/G: 1.2
  ALP: 1900.8 IU/L
  ALT: 48.4 IU/L
  AST: 82 IU/L
  BUN: 17.2 mg/dL
  CRE: 0.2 mg/dL
  Ca: 10.5 mg/dL
  Cl: 108.8 meq/L
  DBIL: 0.002 mg/dL
  GLC: 191 mg/dL
  IP: 6.6 mg/dL
  K: 4.4 meq/L
  LDH: 208.2 IU/L
  Na: 143 meq/L
  PL: 148.6 mg/dL
  RALB: 3 g/dL
  TBIL: 0.002 mg/dL
  TC: 71.4 mg/dL
  TG: 175.2 mg/dL
  TP: 5.5 g/dL
  gamma-GTP: 1 IU/L
[…], time 14 day
  TERMINAL_BW: 297 g
  APTT: 28.5 s
  Bas: 0%
  Eos: 0.8%
  Fbg: 290.2 mg/dL
  Hb: 13.4 g/dL
  Ht: 38.1%
  Lym: 76.2%
  MCH: 20 pg
  MCHC: 35.1%
  MCV: 56.9 fL
  Mono: 2.6%
  Neu: 19.8%
  PT: 15.9 s
  Plat: 103.9 x10_4/uL
  RBC: 671.4 x10_4/ul
  Ret: 3.9%
  WBC: 101 x10_2/uL
  KIDNEY_L: 1.2 g
  KIDNEY_R: 1.2 g
  KIDNEY_TOTAL: 2.4 g
  LIVER: 14.1 g
  A/G: 1.2
  ALP: 1990.8 IU/L
  ALT: 49.4 IU/L
  AST: 83.8 IU/L
  BUN: 17.4 mg/dL
  CRE: 0.2 mg/dL
  Ca: 10.5 mg/dL
  Cl: 108.2 meq/L
  DBIL: 0 mg/dL
  GLC: 198.6 mg/dL
  IP: 5.9 mg/dL
  K: 4.2 meq/L
  LDH: 269 IU/L
  Na: 142.8 meq/L
  PL: 172.6 mg/dL
  RALB: 3 g/dL
  TBIL: 0.002 mg/dL
  TC: 74.4 mg/dL
  TG: 312 mg/dL
  TP: 5.6 g/dL
  gamma-GTP: 1.2 IU/L
[…], time 28 day
  TERMINAL_BW: 360.9 g
  APTT: 37.3 s
  Bas: 0%
  Eos: 0.8%
  Fbg: 283 mg/dL
  Hb: 13.8 g/dL
  Ht: 38.6%
  Lym: 76.4%
  MCH: 19.6 pg
  MCHC: 35.7%
  MCV: 54.9 fL
  Mono: 2%
  Neu: 19.8%
  PT: 17.3 s
  Plat: 116.5 x10_4/uL
  RBC: 704 x10_4/ul
  Ret: 2.7%
  WBC: 133 x10_2/uL
  KIDNEY_L: 1.4 g
  KIDNEY_R: 1.4 g
  KIDNEY_TOTAL: 2.8 g
  LIVER: 15.1 g
  A/G: 1
  ALP: 1673.8 IU/L
  ALT: 56.6 IU/L
  AST: 79.8 IU/L
  BUN: 16.2 mg/dL
  CRE: 0.2 mg/dL
  Ca: 10.1 mg/dL
  Cl: 108 meq/L
  DBIL: 0 mg/dL
  GLC: 183.4 mg/dL
  IP: 6.2 mg/dL
  K: 4.2 meq/L
  LDH: 138.4 IU/L
  Na: 141 meq/L
  PL: 145 mg/dL
  RALB: 2.9 g/dL
  TBIL: 0.026 mg/dL
  TC: 66.6 mg/dL
  TG: 203.4 mg/dL
  TP: 5.7 g/dL
  gamma-GTP: 1.2 IU/L
